# Source: DBAASP
# Legend:
# Assay in all cases: ≥ marks a high value that may be exact or a test limit, other limits are often not marked, values filed in µg/mL are converted to µM
# [1] = system: Escherichia coli ATCC 25922
# [2] = system: Pseudomonas aeruginosa ATCC 27853
# Acinetobacter baumannii = system: Acinetobacter baumannii
# [3] = system: Staphylococcus aureus ATCC 29213
# [4] = system: Enterococcus faecalis ATCC 29212
# Staphylococcus aureus = system: Staphylococcus aureus
# Escherichia coli = system: Escherichia coli
# Candida albicans = system: Candida albicans
# [5] = system: Staphylococcus aureus ATCC 33591
# [6] = system: Staphylococcus aureus ATCC 25923
# [7] = system: Pseudomonas aeruginosa PAO1
# [8] = system: Staphylococcus aureus USA 300
# [9] = system: Klebsiella pneumoniae ATCC 13883
# [10] = system: Candida albicans ATCC 2002
# Bacillus subtilis = system: Bacillus subtilis
# [11] = system: Staphylococcus aureus ATCC 2592
# [12] = system: Candida albicans ATCC 10231
# [13] = system: Bacillus subtilis ATCC 6633
smiles,measurement,setting,value
CC(C)C[C@H](NC(=O)[C@H](CC(C)C)NC(=O)[C@H](CCCNC(=N)N)NC(=O)[C@H](CCCCN)NC(=O)[C@H](CCCNC(=N)N)NC(=O)[C@H](CC(C)C)NC(=O)[C@H](CCCCN)NC(=O)[C@H](CCCNC(=N)N)NC(=O)[C@H](CC(C)C)NC(=O)[C@H](CC(C)C)NC(=O)[C@H](CC(C)C)NC(=O)[C@H](CCCNC(=N)N)NC(=O)[C@H](CCCCN)NC(=O)[C@H](CCCNC(=N)N)NC(=O)[C@H](CC(C)C)NC(=O)[C@H](CCCCN)NC(=O)[C@H](CCCNC(=N)N)NC(=O)[C@@H](N)CC(C)C)C(=O)O [LRKLRKRLLLRKLRKRLL],MIC,[1],5.06 µM
same,MIC,[2],6.74 µM
same,MIC,Acinetobacter baumannii,13.5 µM
same,MIC,[3],> 13.5 µM
same,MIC,[4],> 13.5 µM
CC[C@H](C)[C@H](NC(=O)[C@H](Cc1cnc[nH]1)NC(=O)[C@H](CCCCN)NC(=O)[C@@H](NC(=O)[C@@H](NC(=O)[C@H](CC(=O)O)NC(=O)[C@H](CC(C)C)NC(=O)[C@H](Cc1ccccc1)NC(=O)CN)C(C)C)C(C)C)C(=O)NCC(=O)N[C@@H](CCCCN)C(=O)N[C@@H](C)C(=O)N[C@@H](C)C(=O)N[C@@H](CC(C)C)C(=O)NCC(=O)N[C@@H](C)C(=O)N[C@H](C(=O)N[C@H](C(=O)N[C@@H](Cc1cnc[nH]1)C(=O)N[C@@H](CC(C)C)C(=O)N[C@H](C(=O)N[C@@H](CC(N)=O)C(=O)N[C@@H](CCC(N)=O)C(N)=O)[C@@H](C)CC)[C@@H](C)O)C(C)C [GFLDVVKHIGKAALGAVTHLINQ],MIC,Staphylococcus aureus,13.3 µM
same,MIC,Escherichia coli,13.3 µM
same,MIC,Candida albicans,13.3 µM
CC[C@H](C)[C@H](NC(=O)[C@H](CCCCN)NC(=O)[C@H](CS)NC(=O)[C@H](C)NC(=O)[C@@H](NC(=O)[C@H](Cc1ccccc1)NC(=O)CNC(=O)[C@H](CC(C)C)NC(=O)CNC(=O)[C@@H](NC(=O)[C@H](CCCCN)NC(=O)CNC(=O)[C@H](CC(C)C)NC(=O)[C@H](CC(N)=O)NC(=O)[C@H](CCCN=C(N)N)NC(=O)[C@H](CC(C)C)NC(=O)[C@@H](NC(=O)[C@H](CO)NC(=O)[C@H](CC(C)C)NC(=O)[C@H](CCSC)NC(=O)[C@@H](N)CO)C(C)C)C(C)C)C(C)C)C(=O)N[C@@H](CC(N)=O)C(=O)N[C@@H](CCCCN)C(=O)N[C@@H](CCC(N)=O)C(=O)N[C@@H](CS)C(=O)O [SMLSVLRNLGKVGLGFVACKINKQC],MIC,Staphylococcus aureus,100 µM
same,MIC,Escherichia coli,20 µM
same,MIC,Candida albicans,200 µM
C[C@H](NC(=O)[C@H](CCCCN)NC(=O)[C@H](Cc1ccc(O)cc1)NC(=O)[C@H](CCCCN)NC(=O)[C@H](CCCCN)NC(=O)[C@H](CCCCN)NC(=O)[C@H](Cc1ccc(O)cc1)NC(=O)[C@H](CCCN=C(N)N)NC(=O)[C@H](CCCCN)NC(=O)[C@@H](N)CCCCN)C(=O)N[C@@H](Cc1ccc(O)cc1)C(=O)N[C@@H](CCCCN)C(=O)N1CCC[C@H]1C(=O)N[C@@H](Cc1ccc(O)cc1)C(=O)N[C@@H](CCCCN)C(=O)N[C@@H](CCCCN)C(=O)N[C@@H](CCCCN)C(=O)N[C@@H](CCCCN)C(=O)N[C@@H](CCCCN)C(=O)N[C@@H](Cc1ccccc1)C(N)=O [KKRYKKKYKAYKPYKKKKKF],MIC,[1],12.5 µM
same,MIC,[2],100 µM
same,MIC,[5],≥ 50 µM
same,MIC,[6],35.4 µM
CC[C@H](C)[C@H](NC(=O)[C@H](CCCCN)NC(=O)[C@@H](NC(=O)[C@H](CCC(N)=O)NC(=O)[C@@H](N)CCCN=C(N)N)[C@@H](C)CC)C(=O)N[C@@H](Cc1c[nH]c2ccccc12)C(=O)N[C@@H](Cc1ccccc1)C(=O)N[C@@H](CCC(N)=O)C(=O)N[C@@H](CC(N)=O)C(=O)N[C@@H](CCCN=C(N)N)C(=O)N[C@@H](CCCN=C(N)N)C(=O)N[C@@H](CC(C)C)C(=O)N[C@@H](CCCCN)C(=O)N[C@@H](Cc1c[nH]c2ccccc12)C(=O)N[C@@H](CCCCN)C(=O)N[C@@H](CCCCN)C(N)=O [RQIKIWFQNRRLKWKK],MIC,[1],32 µM
same,MIC,[5],≥ 64 µM
CC(C)C[C@H](NC(=O)[C@H](CC(C)C)NC(=O)[C@H](CCCCN)NC(=O)CNC(=O)[C@H](CC(C)C)NC(=O)[C@H](CO)NC(=O)[C@H](CC(C)C)NC(=O)[C@H](CO)NC(=O)[C@H](CC(C)C)NC(=O)[C@H](CC(C)C)NC(=O)CN)C(N)=O [GLLSLSLGKLL],MIC,[1],> 25 µM
same,MIC,[7],> 25 µM
same,MIC,[8],25 µM
same,MIC,[9],25 µM
CC(C)C[C@H](NC(=O)[C@H](C)NC(=O)[C@H](CCCCN)NC(=O)CNC(=O)[C@H](CC(C)C)NC(=O)[C@H](C)NC(=O)[C@H](CCCCN)NC(=O)[C@H](CC(C)C)NC(=O)[C@H](C)NC(=O)[C@H](CO)NC(=O)[C@H](CC(C)C)NC(=O)[C@H](C)NC(=O)CN)C(N)=O [GALSALKALGKAL],MIC,[1],> 25 µM
same,MIC,[7],> 25 µM
same,MIC,[8],25 µM
same,MIC,[9],25 µM
CC(C)C[C@H](NC(=O)[C@H](CC(C)C)NC(=O)[C@H](CCCCN)NC(=O)CNC(=O)[C@H](CC(C)C)NC(=O)[C@H](CC(C)C)NC(=O)[C@H](CO)NC(=O)[C@H](C)NC(=O)[C@H](CC(C)C)NC(=O)[C@H](CO)NC(=O)[C@H](CC(C)C)NC(=O)[C@H](CC(C)C)NC(=O)CN)C(N)=O [GLLSLASLLGKLL],MIC,[1],2.16 µM
same,MIC,[7],8.8 µM
same,MIC,[8],0.78 µM
same,MIC,[9],3.1 µM
CC[C@H](C)[C@H](NC(=O)[C@H](CCC(N)=O)NC(=O)[C@H](CCCCN)NC(=O)[C@H](Cc1c[nH]c2ccccc12)NC(=O)[C@H](CC(C)C)NC(=O)[C@H](CCC(N)=O)NC(=O)CNC(=O)[C@H](CC(C)C)NC(=O)[C@H](CCCCN)NC(=O)[C@H](C)NC(=O)[C@H](CCC(=O)O)NC(=O)[C@H](CCCCN)NC(=O)[C@@H](NC(=O)[C@H](CCSC)NC(=O)[C@@H](NC(=O)[C@@H](NC(=O)[C@@H](NC(=O)[C@@H](N)CO)[C@@H](C)CC)[C@@H](C)CC)[C@@H](C)O)[C@@H](C)O)C(=O)N[C@@H](C)C(=O)N[C@H]1CSSC[C@@H](C(=O)O)NC(=O)[C@H]([C@@H](C)O)NC(=O)[C@H](CC(N)=O)NC(=O)[C@H](Cc2ccc(O)cc2)NC(=O)[C@H](CC(C)C)NC(=O)[C@H](CCCN=C(N)N)NC1=O [SIITMTKEAKLGQLWKQIACRLYNTC],MIC,[1],39.8 µM
same,MIC,[10],19.9 µM
same,MIC,Bacillus subtilis,≥ 39.8 µM
same,MIC,[11],4.98 µM
CC[C@H](C)[C@H](NC(=O)[C@H](CCCN=C(N)N)NC(=O)[C@H](CC(C)C)NC(=O)CNC(=O)[C@H](CCCCN)NC(=O)CNC(=O)[C@@H]1CCCN1C(=O)[C@H](CC(C)C)NC(=O)[C@H](CC(N)=O)NC(=O)[C@@H]1CCCN1C(=O)[C@H](CO)NC(=O)[C@H](Cc1ccccc1)NC(=O)CN)C(=O)N[C@@H](CO)C(=O)O [GFSPNLPGKGLRIS],MIC,Staphylococcus aureus,> 69.3 µM
same,MIC,Candida albicans,34.7 µM
C[C@H](N)C(=O)N[C@@H](CCCN=C(N)N)C(=O)N[C@@H](Cc1c[nH]c2ccccc12)C(=O)N[C@@H](CCCN=C(N)N)C(=O)N[C@@H](Cc1ccccc1)C(=O)N[C@@H](CCCCN)C(=O)N[C@@H](Cc1c[nH]c2ccccc12)C(=O)N[C@@H](C)C(=O)N[C@@H](CCCCN)C(=O)N[C@@H](CCCCN)C(=O)O [ARWRFKWAKK],MIC,[1],54.5 µM
same,MIC,[12],54.5 µM
same,MIC,[13],≥ 54.5 µM
same,MIC,[6],54.5 µM
CC[C@H](C)[C@H](NC(=O)[C@H](CCC(N)=O)NC(=O)[C@H](CC(C)C)NC(=O)[C@H](CCC(N)=O)NC(=O)[C@@H](NC(=O)[C@H](CCCCN)NC(=O)[C@H](Cc1ccccc1)NC(=O)[C@H](Cc1c[nH]c2ccccc12)NC(=O)[C@@H](N)CCCCN)[C@@H](C)CC)C(=O)N[C@@H](CCCCN)C(=O)N[C@@H](CCCCN)C(=O)N[C@@H](Cc1c[nH]c2ccccc12)C(=O)N[C@@H](CCCCN)C(=O)N[C@@H](CC(N)=O)C(=O)N[C@@H](CCCCN)C(=O)N[C@@H](CCCCN)C(N)=O [KWFKIQLQIKKWKNKK],MIC,[1],32 µM
same,MIC,[5],≥ 32 µM
